What was measured:
Assay type in all cases: cell-based
HepG2 cells = test: Cell viability assay (HepG2 Survival assay, CellTiter-Glo); conditions: 24 hr, cellular ATP levels
Method: (§1) HepG2 cells (ATCC, Cat.: HB-8065) were maintained in Growth medium-Eagle's Minimum Essential Medium (Corning, 10-010-CVR), 10% FBS (Gibco, 10099-141), Penicillin (100 units/mL), Streptomycin ([…]). HepG2 cells were incubated at 37° C., 5% CO2. HepG2 cells were plated in black clear bottom 96-well plates (Corning, 3063) at 40,000 cells/well in 100 μL of growth media. After an overnight incubation, the culture media were changed to serum-free OptiMEM media (Gibco, 31985-062), 90 μL/well. Vehicle, PF-06446846 hydrochloride, berberine, or test compound was added to the culture media, 10 μL/well. After 24 hr cellular ATP levels were measured using CellTiter-Glo® 2.0 Assay (Promega, G9242).

PCSK9 = PCSK9 ELISA on HepG2 culture medium; conditions: HepG2 cells, 24 hr
Method: as §1, with “flat” for “black clear”, “3599)” for “3063)”, “medium was harvested, and 10 μL of the medium” for “cellular ATP levels”, “used for the PCSK9 ELISA (R&D Systems, SPC900).” for “measured using CellTiter-Glo® 2.0 Assay (Promega, G9242).”

PCSK9 mRNA = test: RT-Q-PCR analysis of PCSK9 mRNA in HepG2 cells; conditions: Homo sapiens, 24 h, normalized to GAPDH, read-out: HepG2 Q-PCR PCSK9 mRNA level decrease (10 μM)
Method: HepG2 cells (ATCC, Cat.: HB-8065) were maintained in Growth medium-Eagle's Minimum Essential Medium (Corning, 10-010-CVR), 10% FBS (Gibco, 10099-141), Penicillin (100 units/mL), Streptomycin ([…]). HepG2 cells were incubated at 37° C., 5% CO2.
Cells were cultured in growth medium as described above and treated with the vehicle, Berberine or test compound for 24 h. The RNA was extracted using the Total RNA mini Kit (Tiangen, Beijing, China) according to the manufacturer's instructions. Reverse transcription was carried out using the High-Capacity cDNA reverse transcription kit (Thermo Fisher Scientific). Quantitative real-time PCR was performed using a reaction mixture containing cDNA, specific primers [PCSK9, 5′-[…]-3′ (forward) and 5′-[…]-3′ (reverse); GAPDH, 5′-[…]-3′ (forward) and 5′-[…]-3′ (reverse)] and Maxima SYBR Green/ROX qPCR Master Mix (Thermo Fisher Scientific). PCR amplification was carried out in a Real-Time PCR System. The real-time PCR conditions were 37° C. 10 min; 95° C. 10 min; 95° C. 15 s, 60° C. 30 s, 72° C. 30 s, 40 cycle. The amount of % RNA was normalized to the GAPDH level in the same samples.

## CN(C(=O)CN(CC(=O)NC1Cc2ccccc2C1)C(=O)c1cc2cccc(F)c2[nH]1)c1ccc(Oc2ccc(F)cc2)cc1 [Compound 201-14]
HepG2 cells
  HepG2 Survival assay (10 μM): 93%
PCSK9
  HepG2 PCSK9 ELISA (10 μM) % inhibition: 41%
PCSK9 mRNA
  inhibition at 10 µM: 89.5%

## O=C(CN(CC(=O)NC1Cc2ccccc2C1)C(=O)c1cc2ccccc2[nH]1)Nc1ccc(Oc2ccccc2)cc1 [Compound 201-11]
HepG2 cells
  HepG2 Survival assay (10 μM): 100%
PCSK9
  HepG2 PCSK9 ELISA (10 μM) % inhibition: 38%
PCSK9 mRNA
  inhibition at 10 µM: 79.3%

## O=C(CN(CC(=O)Nc1ccc(Oc2ccc(F)cc2)cc1)C(=O)c1cc2cc(F)ccc2[nH]1)NCc1ccccc1F [Compound 201-37]
HepG2 cells
  HepG2 Survival assay (10 μM): 100%
PCSK9
  HepG2 PCSK9 ELISA (10 μM) % inhibition: 50%
PCSK9 mRNA
  inhibition at 10 µM: 63%

## CN(Cc1ccccc1F)C(=O)CN(CC(=O)Nc1ccc(Oc2ccc(F)cc2)cc1)C(=O)c1cc2ccccc2o1 [Compound 201-85]
HepG2 cells
  HepG2 Survival assay (10 μM): 100%
PCSK9
  HepG2 PCSK9 ELISA (10 μM) % inhibition: 46%
PCSK9 mRNA
  inhibition at 10 µM: 70%

## O=C(CN(CC(=O)NC1Cc2ccccc2C1)C(=O)c1cc2cccc(F)c2[nH]1)Nc1ccc(Oc2ccc(F)cc2)cc1 [Compound 201-13]
HepG2 cells
  HepG2 Survival assay (10 μM): 97%
PCSK9
  HepG2 PCSK9 ELISA (10 μM) % inhibition: 64%
PCSK9 mRNA
  inhibition at 10 µM: 93.3%

## CN(Cc1ccccc1)C(=O)CN(CC(=O)Nc1ccc(Oc2ccc(F)cc2)cc1)C(=O)c1cc2cc(F)ccc2[nH]1 [Compound 201-53]
HepG2 cells
  HepG2 Survival assay (10 μM): 100%
PCSK9
  HepG2 PCSK9 ELISA (10 μM) % inhibition: 50%
PCSK9 mRNA
  inhibition at 10 µM: 80%

## CN(Cc1ccccc1)C(=O)CN(CC(=O)Nc1ccc(Oc2ccccc2)cc1)C(=O)c1cc2c(F)cccc2[nH]1 [Compound 201-51]
HepG2 cells
  HepG2 Survival assay (10 μM): 93%
PCSK9
  HepG2 PCSK9 ELISA (10 μM) % inhibition: 55%
PCSK9 mRNA
  inhibition at 10 µM: 75%

## CN(Cc1ccccc1)C(=O)CN(CC(=O)N(C)c1ccc(Oc2ccc(F)cc2)cc1)C(=O)c1cc2c(F)cccc2[nH]1 [Compound 201-50]
HepG2 cells
  HepG2 Survival assay (10 μM): 100%
PCSK9
  HepG2 PCSK9 ELISA (10 μM) % inhibition: 47%
PCSK9 mRNA
  inhibition at 10 µM: 77%

## CN(Cc1ccccc1F)C(=O)CN(CC(=O)Nc1ccc(Oc2ccc(F)c(F)c2)cc1)C(=O)c1cc2ccccc2o1 [Compound 201-97]
HepG2 cells
  HepG2 Survival assay (10 μM): 100%
PCSK9
  HepG2 PCSK9 ELISA (10 μM) % inhibition: 48%
PCSK9 mRNA
  inhibition at 10 µM: 37%

## CC(C)c1ccc(Oc2ccc(NC(=O)CN(CC(=O)NC3CCCC3)C(=O)c3ccc(C(F)(F)F)[nH]3)cc2)cc1 [Compound 201-235]
HepG2 cells
  HepG2 Survival assay (10 μM): 101%
PCSK9
  HepG2 PCSK9 ELISA (10 μM) % inhibition: 73%
PCSK9 mRNA
  inhibition at 10 µM: 72%

## CN(Cc1ccccc1)C(=O)CN(CC(=O)Nc1ccc(Oc2ccc(F)cc2)cc1)C(=O)c1cc2c(F)cccc2[nH]1 [Compound 201-49]
HepG2 cells
  HepG2 Survival assay (10 μM): 100%
PCSK9
  HepG2 PCSK9 ELISA (10 μM) % inhibition: 50%
PCSK9 mRNA
  inhibition at 10 µM: 77%

## CN(C(=O)CN(CC(=O)NCc1ccccc1F)C(=O)c1cc2cccc(F)c2[nH]1)c1ccc(Oc2ccc(F)cc2)cc1 [Compound 201-46]
HepG2 cells
  HepG2 Survival assay (10 μM): 100%
PCSK9
  HepG2 PCSK9 ELISA (10 μM) % inhibition: 33%
PCSK9 mRNA
  inhibition at 10 µM: 46%

## O=C(CN(CC(=O)Nc1ccc(Oc2ccc(C(F)(F)F)cc2)cc1)C(=O)c1cc2cccc(F)c2[nH]1)Nc1ccccc1 [Compound 201-255]
HepG2 cells
  HepG2 Survival assay (10 μM): 101%
PCSK9
  HepG2 PCSK9 ELISA (10 μM) % inhibition: 87%
PCSK9 mRNA
  inhibition at 10 µM: 72%

## CC(C)c1ccc(Oc2ccc(NC(=O)CN(CC(=O)Nc3ccccc3)C(=O)c3ccc(C(F)(F)F)o3)cc2)cc1 [Compound 201-261]
HepG2 cells
  HepG2 Survival assay (10 μM): 99%
PCSK9
  HepG2 PCSK9 ELISA (10 μM) % inhibition: 60%

## O=C(CN(CC(=O)Nc1ccc(Oc2ccc(C(F)(F)F)cc2)cc1)C(=O)c1ccc(C(F)(F)F)o1)NCc1ccccc1 [Compound 201-209]
HepG2 cells
  HepG2 Survival assay (10 μM): 92%
PCSK9
  HepG2 PCSK9 ELISA (10 μM) % inhibition: 91%

## CN(Cc1ccccc1F)C(=O)CN(CC(=O)Nc1ccc(Oc2ccc(F)c(F)c2)cc1)C(=O)c1ccco1 [Compound 201-133]
HepG2 cells
  HepG2 Survival assay (10 μM): 100%
PCSK9
  HepG2 PCSK9 ELISA (10 μM) % inhibition: 98%
PCSK9 mRNA
  inhibition at 10 µM: 92%

## N#Cc1cccc2cc(C(=O)N(CC(=O)Nc3ccc(Oc4ccc(C(F)(F)F)cc4)cc3)CC(=O)NC3CCCC3)[nH]c12 [Compound 201-237]
HepG2 cells
  HepG2 Survival assay (10 μM): 98%
PCSK9
  HepG2 PCSK9 ELISA (10 μM) % inhibition: 72%
PCSK9 mRNA
  inhibition at 10 µM: 77%

## O=C(CN(CC(=O)Nc1ccc(Oc2ccc(F)cc2)cc1)C(=O)c1cc2ccccc2[nH]1)NCc1ccccc1F [Compound 201-41]
HepG2 cells
  HepG2 Survival assay (10 μM): 100%
PCSK9
  HepG2 PCSK9 ELISA (10 μM) % inhibition: 72%
PCSK9 mRNA
  inhibition at 10 µM: 75%

## CN(Cc1ccccc1F)C(=O)CN(CC(=O)Nc1ccc(Oc2ccc(F)cc2)cc1)C(=O)c1cc2cccc(F)c2[nH]1 [Compound 201-69]
HepG2 cells
  HepG2 Survival assay (10 μM): 92%
PCSK9
  HepG2 PCSK9 ELISA (10 μM) % inhibition: 80%
PCSK9 mRNA
  inhibition at 10 µM: 78%

## O=C(CN(CC(=O)Nc1ccc(Oc2ccccc2)cc1)C(=O)c1cc2ccccc2[nH]1)NCc1ccccc1F [Compound 201-43]
HepG2 cells
  HepG2 Survival assay (10 μM): 100%
PCSK9
  HepG2 PCSK9 ELISA (10 μM) % inhibition: 60%
PCSK9 mRNA
  inhibition at 10 µM: 77%

## O=C(CN(CC(=O)Nc1ccc(Oc2ccccc2)cc1)C(=O)c1cc2cccc(F)c2[nH]1)NCc1ccccc1F [Compound 201-47]
HepG2 cells
  HepG2 Survival assay (10 μM): 99%
PCSK9
  HepG2 PCSK9 ELISA (10 μM) % inhibition: 70%
PCSK9 mRNA
  inhibition at 10 µM: 90%

## O=C(CN(CC(=O)Nc1ccc(Oc2ccc(F)cc2)cc1)C(=O)c1cc2cccc(F)c2[nH]1)NCc1ccccc1F [Compound 201-45]
HepG2 cells
  HepG2 Survival assay (10 μM): 100%
PCSK9
  HepG2 PCSK9 ELISA (10 μM) % inhibition: 60%
PCSK9 mRNA
  inhibition at 10 µM: 80%

## O=C(CN(CC(=O)Nc1ccc(Oc2ccc(C(F)(F)F)cc2)cc1)C(=O)c1ccc(C(F)(F)F)[nH]1)Nc1ccccc1 [Compound 201-263]
HepG2 cells
  HepG2 Survival assay (10 μM): 88%
PCSK9
  HepG2 PCSK9 ELISA (10 μM) % inhibition: 84%

## CC(C)c1ccc(Oc2ccc(NC(=O)CN(CC(=O)NCc3ccccc3)C(=O)c3ccc(C(F)(F)F)[nH]3)cc2)cc1 [Compound 201-249]
HepG2 cells
  HepG2 Survival assay (10 μM): 97%
PCSK9
  HepG2 PCSK9 ELISA (10 μM) % inhibition: 85%

## O=C(CN(CC(=O)Nc1ccc(Oc2ccccc2)cc1)C(=O)c1cc2cccc(F)c2[nH]1)Nc1ccccc1 [Compound 201-258]
HepG2 cells
  HepG2 Survival assay (10 μM): 97%
PCSK9
  HepG2 PCSK9 ELISA (10 μM) % inhibition: 69%

## CN(Cc1ccccc1)C(=O)CN(CC(=O)N(C)c1ccc(Oc2ccccc2)cc1)C(=O)c1cc2c(F)cccc2[nH]1 [Compound 201-52]
HepG2 cells
  HepG2 Survival assay (10 μM): 100%
PCSK9
  HepG2 PCSK9 ELISA (10 μM) % inhibition: 45%
PCSK9 mRNA
  inhibition at 10 µM: 79%

## O=C(CN(CC(=O)Nc1ccc(Oc2ccc(F)c(F)c2)cc1)C(=O)c1cc2cccc(F)c2[nH]1)Nc1ccccc1 [Compound 201-274]
HepG2 cells
  HepG2 Survival assay (10 μM): 98%
PCSK9
  HepG2 PCSK9 ELISA (10 μM) % inhibition: 77%
PCSK9 mRNA
  inhibition at 10 µM: 88%

## O=C(CN(CC(=O)NC1Cc2ccccc2C1)C(=O)c1cc2cccc(F)c2[nH]1)Nc1ccc(Oc2ccccc2)cc1 [Compound 201-15]
HepG2 cells
  HepG2 Survival assay (10 μM): 100%
PCSK9
  HepG2 PCSK9 ELISA (10 μM) % inhibition: 46%
PCSK9 mRNA
  inhibition at 10 µM: 95.2%

## CN(Cc1ccccc1)C(=O)CN(CC(=O)N(C)c1ccc(Oc2ccc(F)cc2)cc1)C(=O)c1cc2cc(F)ccc2[nH]1 [Compound 201-54]
HepG2 cells
  HepG2 Survival assay (10 μM): 100%
PCSK9
  HepG2 PCSK9 ELISA (10 μM) % inhibition: 52%
PCSK9 mRNA
  inhibition at 10 µM: 61%

## CN(Cc1ccccc1F)C(=O)CN(CC(=O)Nc1ccc(Oc2ccccc2)cc1)C(=O)c1ccco1 [Compound 201-127]
HepG2 cells
  HepG2 Survival assay (10 μM): 90%
PCSK9
  HepG2 PCSK9 ELISA (10 μM) % inhibition: 74%
PCSK9 mRNA
  inhibition at 10 µM: 92%

## CN(Cc1ccccc1F)C(=O)CN(CC(=O)Nc1ccc(Oc2ccc(F)cc2)cc1)C(=O)c1ccc(C(F)(F)F)o1 [Compound 201-103]
HepG2 cells
  HepG2 Survival assay (10 μM): 100%
PCSK9
  HepG2 PCSK9 ELISA (10 μM) % inhibition: 86%
PCSK9 mRNA
  inhibition at 10 µM: 85%

## CN(Cc1ccccc1F)C(=O)CN(CC(=O)Nc1ccc(Oc2ccccc2)cc1)C(=O)c1cc2ccccc2o1 [Compound 201-91]
HepG2 cells
  HepG2 Survival assay (10 μM): 100%
PCSK9
  HepG2 PCSK9 ELISA (10 μM) % inhibition: 40%
PCSK9 mRNA
  inhibition at 10 µM: 58%

— patent US20230122967A1, “NOVEL COMPOUNDS AS INHIBITORS OF PCSK9” (SHENGKE PHARMACEUTICALS (JIANGSU) LTD., priority 2020, published 2023)
